These molecules were tested against T1, β-galactosidase (Homo sapiens, UniProt P16278) (assay: Human lysosomal glycosidase selectivity screening (leukocyte homogenate)). Settings: 1 mM, read-out: percentage of inhibition, β-Gal.
T1 construct: from leukocytes isolated from healthy donors (controls); from tissue; host or cells: leukocytes from healthy donors, sonicated homogenate
T1 sequence (P16278 29-677): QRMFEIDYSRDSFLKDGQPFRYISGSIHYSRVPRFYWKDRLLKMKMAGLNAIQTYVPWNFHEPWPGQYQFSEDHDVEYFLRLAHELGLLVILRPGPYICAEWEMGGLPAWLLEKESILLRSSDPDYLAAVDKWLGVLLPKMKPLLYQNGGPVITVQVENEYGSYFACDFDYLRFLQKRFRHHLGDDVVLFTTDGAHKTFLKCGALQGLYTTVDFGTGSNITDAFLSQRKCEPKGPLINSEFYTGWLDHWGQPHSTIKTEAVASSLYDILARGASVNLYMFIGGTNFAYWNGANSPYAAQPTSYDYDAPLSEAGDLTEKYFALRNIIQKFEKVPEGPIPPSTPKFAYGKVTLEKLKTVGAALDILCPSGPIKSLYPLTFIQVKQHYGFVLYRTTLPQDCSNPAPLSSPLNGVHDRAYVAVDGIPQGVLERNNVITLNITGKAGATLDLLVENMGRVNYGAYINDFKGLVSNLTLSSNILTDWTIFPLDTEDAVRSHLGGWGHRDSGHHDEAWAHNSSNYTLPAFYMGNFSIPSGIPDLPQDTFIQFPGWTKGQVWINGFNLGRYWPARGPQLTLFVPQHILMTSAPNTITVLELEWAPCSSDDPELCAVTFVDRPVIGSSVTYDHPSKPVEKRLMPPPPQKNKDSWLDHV
Format: biochemical
Procedure: In order to avoid undesired inhibitory side effects of a potential new drug, it has to be selective for a given target. The selectivity of the newly synthesized compounds 14, 15, and 33·HCl toward GCase was then investigated, evaluating their inhibition at 1 mM concentration toward six other lysosomal glycosidases (namely, α-and β-mannosidases, α- and β-galactosidases, α-fucosidase, and α-glucosidase) in cell homogenates (leucocytes or lymphocytes) isolated from healthy donors. […] Indeed, only moderate inhibitory activity (ca. 50%) was found toward human β-galactosidase for both piperidines 14 and 15, while negligible inhibitory activity was detected in all other cases.
The effect of 1 mM concentration of 14, 15, and 33·HCl was assayed toward six lysosomal glycosidases other than GCase, namely, α-mannosidase, β-mannosidase, α-galactosidase, β-galactosidase, α-fucosidase from leukocytes isolated from healthy donors (controls) and α-glucosidase from lymphocytes isolated from healthy donors’ flesh blood (controls). […]
μL, Sigma –Aldrich) in acetate buffer (0.1M, pH 4.3) containing NaCl (0.1M) and sodium azide (0.02%) were incubated at 37 °C for 1 h. The reaction was stopped by addition o f sodium carbonate (200 μL; 0.5M, pH 10.7) containing Triton X -100 (0.0025 %), and the fluorescence 4 -methylumbelliferone released by β-galactosidase activity was measured in SpectraMax M2 microplate reader ( λex=365 nm, λem=435 nm; Molecular Devices). […]
α-Fucosidase activity was measured in a flat -bottomed 96 -well plate. […]
α-Glucosidase activity was measured in a flat –bottomed 96 well plate. […] The reaction was stopped by the addition of a solution of sodium carbonate (200 µL; 0.5M, pH 10.7) containing Triton X -100 (0.0025 %), and the fluorescence of 4 -methylumbelliferone released by α-glucosidase activity was measured in […]
Figure S 48. […] The corresponding calculated percentage of inhibition is indicated above each bar.
`CCCCCCCC[C@@H]1[C@@H](O)[C@H](O)[C@H](O)CN1C(CCCCCCC)CCCCCCC.Cl` [compound 33·HCl, (2R,3R,4R,5R)-2-Octyl-1-(pentadecan-8-yl)-piperidine-3,4,5-triol Hydrochloride] was tested, and the inhibition at 1000 µM was 15%. `CCCCCCCC[C@H]1[C@@H](O)[C@H](O)[C@H](O)CN1CCCCCCCC` [compound 14, (2S,3R,4R,5R)-1,2-Dioctylpiperidine-3,4,5-triol] was tested, and the inhibition at 1000 µM was 48%. `CCCCCCCC[C@@H]1[C@@H](O)[C@H](O)[C@H](O)CN1CCCCCCCC` [compound 15, (2R,3R,4R,5R)-1,2-Dioctylpiperidine-3,4,5-triol] was tested, and the inhibition at 1000 µM was 51%.

From PMC8453635, “Piperidine Azasugars Bearing Lipophilic Chains: Stereoselective Synthesis and Biological Activity as Inhibitors of Glucocerebrosidase (GCase)” (The Journal of Organic Chemistry, 2021)
